Data as given in paper PMC11480511 (Scientific Reports, 2024).
Where “and” joins values, the source holds several entries; their conditions need not be identical. Equal values may be shown once.

Tests used:
[1] = biological target: T1, topoisomerase Iα (Homo sapiens, UniProt P11387); assay: Topoisomerase I inhibition, human DNA topoisomerase Elisa kit; assay type: biochemical; conditions: ± SEM
T1 construct: purchased
T1 sequence (P11387 1-765): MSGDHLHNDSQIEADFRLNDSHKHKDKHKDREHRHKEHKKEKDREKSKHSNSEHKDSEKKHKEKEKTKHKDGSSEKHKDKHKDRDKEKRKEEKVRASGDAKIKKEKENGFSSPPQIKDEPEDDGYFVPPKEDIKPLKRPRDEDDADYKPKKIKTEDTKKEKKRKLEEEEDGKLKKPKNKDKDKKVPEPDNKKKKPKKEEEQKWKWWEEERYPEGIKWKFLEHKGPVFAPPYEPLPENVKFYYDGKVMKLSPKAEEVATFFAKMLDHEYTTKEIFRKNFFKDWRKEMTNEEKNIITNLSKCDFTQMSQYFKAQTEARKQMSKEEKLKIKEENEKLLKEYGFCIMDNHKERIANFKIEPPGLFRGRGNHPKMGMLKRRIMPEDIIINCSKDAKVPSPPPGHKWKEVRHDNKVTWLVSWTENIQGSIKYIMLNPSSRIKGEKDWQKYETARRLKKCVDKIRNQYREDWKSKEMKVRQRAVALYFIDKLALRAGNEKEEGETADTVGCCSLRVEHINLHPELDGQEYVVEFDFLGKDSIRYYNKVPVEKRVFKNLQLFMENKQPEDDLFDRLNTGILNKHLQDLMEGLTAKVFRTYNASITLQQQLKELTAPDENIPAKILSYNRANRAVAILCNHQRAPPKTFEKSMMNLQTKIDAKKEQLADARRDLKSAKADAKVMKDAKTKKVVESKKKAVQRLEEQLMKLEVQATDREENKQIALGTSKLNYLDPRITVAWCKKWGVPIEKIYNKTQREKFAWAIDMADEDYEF
Experimental: Two folds of serial dilution was accomplished after standards and the tested compounds were dissolved in sample diluent. Horseradish peroxidase (HRP-avidin) and biotin-conjugated antibody were diluted 10 times each. Each well received 100 µL of each concentration of the standard or test chemicals, which were then added and incubated at 37 °C for 60 min. […] The microtiter plate was rinsed three times and given room to aspirate. After that, the plate was incubated at 37 °C for 60 min with 100 µL of HRP-avidin solution added to each well. After that, the plate was aspirated and cleaned 5 times. Each well received 90 µL of TMB substrate, and the plate was incubated for 30 min. at 37 °C in a light-protected environment. Finally, stop solution (50 µL) was loaded, and within 5 min, the absorbance at 450 nm was measured spectrophotometrically.
Topoisomerase enzyme assay
Topoisomerase I and II inhibitory activity […]
topoisomerase IIβ inhibitory activity utilizing the human DNA topoisomerase Elisa kit.
Standards and the tested compound were dissolved in sample diluent and 2 folds serial dilution was achieved. Biotin-conjugated antibody and avidin conjugated Horseradish Peroxidase (HRP-avidin) were diluted to 10 folds. 100 μL of each concentration of standard or test compound were added to each well. Incubate at 37 °C for 1 h. The liquid in each well was removed. 10 0 μL of Biotin-conjugated antibody solution was added to each well followed by incubation for 1 h at 37 °C. The microtiter plate was allowed to aspirate and washed 3 times. 100 μL of avidin conjugated Horseradish Peroxidase (HRP -avidin) solution was added to each well and the plate was incubated for 1 h at 37 °C. The plate was aspirated and washed 5 times. 90 μL of TMB substrate were added to each well and the plate was incubated for 30 min at 37 °C and protected from light. 50 μL stop so lution was added. The absorbance was measured spectrophotometrically within 5 min at 450 nm .

[2] = tested on: melanoma LOX IMVI cell line; assay: Annexin V-FITC/PI apoptosis and necrosis assay; assay type: cell-based, human; conditions: LOX IMVI treated with IC50 concentration
Experimental: Following the manufacturer’s instructions, the Annexin V-FITC Apoptosis Detection Kit (Bio Vision Research Products, USA) was used to analyze cell apoptosis. Briefly, 500 µL of 1X Binding buffer was used to resuspend 1-5 × 10^5 cells that had been harvested by centrifugation. Propidium iodide (PI, 50 mg/ml) and Annexin V-FITC, each administered in 5 µL, were also added. The cells were first incubated for 5 minutes at room temperature in the dark before being analyzed using the Annexin V-FITC binding flow cytometric technique (Ex = 488 nm; Em = 530 nm) with a FITC signal detector (typically FL1) and PI staining with a phycoerythrin emission signal detector (typically FL2). Before exposing adherent cells to Annexin V-FITC, we gently trypsinized and gave them a single wash in serum-containing medium (A.3–5). Cell synchronisation is done using Double-thymidine synchronization method and the used Media is double modifed eagle media (DMEM).
Cell cycle analysis and detection of apoptosis
Annexin V-FITC apoptosis assay
Cell apoptosis were analyzed by the Annexin V-FITC Apoptosis Detection Kit (Bio Vision Research Products, USA). Thereafter, 1-5 x 10^5 cells were collected by centrifugation and resuspend in 500 μl of 1X Binding Buffer. Added 5 μl of Annexin V-FITC and 5 μl of propidium iodide (PI 50mg/ml, optional.). The cells incubated at room temperature for 5 min in the dark; Analyzed by Annexin V-FITC binding flow cytometric method (Ex = 488 nm; Em = 530 nm) using FITC signal detector (usually FL1) and PI staining by the phycoerythrin emission signal detector (usually FL2). For adherent cells, we gently trypsinized and washed cells once with serum-containing media before incubation with Annexin V-FITC (A.3-5). […]

[3] = tested on: normal cell line WI 38; assay: MTT cytotoxicity assay on normal cells; assay type: cell-based; conditions: Homo sapiens; normal cell line WI 38, MTT assay, ± SEM; read-out: IC50 W138 normal cell line (µM ± SEM)
Experimental: After 24 h of culture incubation and supernatants discarded. […] Each test should include a blank containing complete medium without cells. […] Add reconstituted MTT in an amount equal to 10% of the culture medium volume. […] Spectrophotometrically absorbance was measured at a wavelength of 570 nm. […] Results from all experiments were recorded and the percentage of viable cells was calculated.

O=C(O)c1cn(C2CC2)c2cc(N3CCN(C(=O)CCCN4C(=O)SC(=Cc5cccc6ccccc56)C4=O)CC3)c(F)cc2c1=O [3j, 1-cyclopropyl-6-fluoro-7-[4-[4-[5-(1-naphthylmethylene)-2,4-dioxo-thiazolidin-3-yl]butanoyl]piperazin-1-yl]-4-oxo-quinoline-3-carboxylic acid] was tested, and the IC50 [1] was 23.5 ± 1.28 µM.
With O=C(O)c1cn(C2CC2)c2cc(N3CCN(C(=O)CCCN4C(=O)S/C(=C\c5ccc(F)cc5)C4=O)CC3)c(F)cc2c1=O [3i] the “Apoptosis Early” value [2] was 3.03%, the “Apoptosis Late” value [2] was 24.17% and the “Apoptosis Total” value [2] was 38.51%. For the same compound, the Necrosis [2] was 11.31%, the IC50 [1] was 4.8 µM and 4.77 µM and the IC50 [3] was 45.1 ± 2.43 µM.
In the case of O=C(O)c1cn(C2CC2)c2cc(N3CCN(C(=O)CCCN4C(=O)CSC4=O)CC3)c(F)cc2c1=O [3 L, 1-Cyclopropyl-7-(4-(4-(2,4-dioxothiazolidin-3-yl)butanoyl)piperazin-1-yl)-6-fluoro-4-oxo-1,4-dihydroquinoline-3-carboxylic acid], the IC50 [1] is reported as 18.8 ± 1.02 µM.
Compound O=C(O)c1cn(C2CC2)c2cc(N3CCN(C(=O)CCCN4C(=O)S/C(=C\c5ccc([N+](=O)[O-])cc5)C4=O)CC3)c(F)cc2c1=O [3k] has an IC50 [1] of 36.6 ± 1.99 µM.
O=C(O)c1cn(C2CC2)c2cc(N3CCN(C(=O)CCCN4C(=O)SC(=Cc5ccccc5)C4=O)CC3)c(F)cc2c1=O [3a, 7-[4-[4-[5-benzylidene-2,4-dioxo-thiazolidin-3-yl]butanoyl]piperazin-1-yl]-1-cyclopropyl-6-fluoro-4-oxo-quinoline-3-carboxylic acid] gave an IC50 [1] of 14.5 ± 0.79 µM.
